From US7208572B2, “Leptin-related peptides” (Albany Medical College, priority 1998, dated 2007)
Marks after values point to notes of the source that are not given here. Square brackets hold non-standard residues; d marks the D form. Ends that are not written are not given here.

How the values were obtained:
Assay type in all cases: in vivo, mouse
[1] = Epitope mapping: body weight and food intake in female C57BL/6J ob/ob mice, 7 daily ip injections; conditions: 7 days; for Cumulative food intake / Percent heavier (+) or lighter (−) than initial weight / Weight gain (+) or loss (−): 1 mg/day ip
Method: Animal procedures. Feeding and weighing schedules, as well as peptide administration protocols, are as described in EXAMPLE 8, supra.
Statistical analysis. Changes in body weight and differences in food intake between peptide-treated and vehicle-injected control mice were analyzed by analysis of variance (ANOVA) and considered significant when P<0.05.
Female ob/ob mice (n=6 per group) were given a single ip injection of 0.2 ml of vehicle (PBS, pH 7.2) or leptin-related synthetic peptide amide in 0.2 ml PBS for 7 consecutive days. Daily changes in body weight compared to pretreatment weights in both vehicle-injected control and peptide-treated mice are shown in FIG. 4. […] There was no evidence of weight loss in response to peptide treatment.

[2] = Truncated and D-amino acid-substituted analogs: body weight, food and water intake in female C57BL/6J ob/ob mice, 7 days; conditions: for Cumulative food intake g/mouse3 g/mouse3 / Decrease(%) of cumulative food intake / Cumulative water intake / Cumulative food intake / Heavier (+) or lighter (−) than initial weight / Weight gain (+) or loss (−): 1 mg/day ip; for Decrease(%) of cumulative food intake / Increase (+) or decrease (−) of cumulative water intake / Increase (+) or decrease (−) of cumulative food intake: vs vehicle; for Food intake relative to OB3: truncated analogs; for Cumulative food intake / Heavier (+) or lighter (−) than initial weight / Weight gain (+) or loss (−) / Increase (+) or decrease (−) of cumulative food intake: D-analog series
Method: A. Housing: 6–8-week old homozygous female obese (ob/ob) and wild type (+1+) mice (C57BL/6J, Jackson Laboratory, Bar Harbor, Maine) were maintained in a temperature-controlled room (24° C.) in the Albany Medical College Animal Resources Facility under alternating 12-h light and dark periods (lights on 0700–1900 h). The animals were housed three per cage, and allowed food and water ad libitum for six days following their arrival.
Food and water remaining after 24 h was measured to the nearest 0.1 g and 0.1 ml, respectively, and the average amount consumed per mouse was calculated (mean±SEM, n=6). The mice were weighed once daily between 0900 and 1100 h on an Acculab V-333 electronic balance (Cole-Parmer, Vernon Hills, Ill.)
C. […] Control mice received 0.2 ml PBS (ip) only.
Female C7BL/6J ob/ob mice were given a single ip injection of vehicle (PBS, pH 7.2), LEP-(116–130) or truncated peptide (1 mg/200 ul PBS) for seven consecutive days. Daily changes in body weight compared to pretreatment weights of vehicle-injected control and peptide-treated mice were analyzed.

[3] = 12-day ip study of body weight gain and food intake in female C57BL/6J ob/ob mice; conditions: 1 mg/day ip, 12 days
Method: The graphs show changes in body weight (expressed as percent of initial weight) and food intake (expressed as mg/gm body weight/mouse) for mice given vehicle or synthetic leptin-related peptide OB3 (1 mg/day, ip, 12 days).
Mice were injected with leptin-related synthetic peptide (1 mg/g body weight, ip) or vehicle daily for 12 consecutive days. Each bar represents mean±SEM food consumption per mouse (n=6 mice per group) after 3, 6, 9 and 12 days of treatment.
Each value represents mean±SEM change in body weight for a group of 6 mice.
Mice were injected with leptin-related synthetic peptide (1 mg/g body weight, ip) or vehicle for 12 consecutive days. Each bar and vertical line represents mean±food consumption per mouse (n=6 mice per group) after 3, 6, 9 and 12 days of treatment.

[4] = Blood glucose in female C57BL/6J ob/ob mice (Example 11); conditions: 1 mg/day ip
Method: D. Measurement of blood glucose: Blood was drawn from the tail vein of each mouse 2 h before the onset of the dark period at the beginning of the study, and after 2, 4, and 6 days of peptide treatment. The blood was applied to a test strip, and glucose levels were measured with a Glucometer Elite (Bayer, Elkhart, Ind.) glucose monitor.

| Substance | Cumulative food intake [1] | Percent heavier (+) or lighter (−) than initial weight [1] | Weight gain (+) or loss (−) [1] | Cumulative food intake g/mouse3 g/mouse3 ([2]; 7 days) | Decrease(%) of cumulative food intake ([2]; 7 days) | Cumulative water intake ([2]; 7 days) | Cumulative food intake ([2]; 7 days) | Heavier (+) or lighter (−) than initial weight ([2]; 7 days) | Weight gain (+) or loss (−) ([2]; 7 days) | Food intake of D-analogs ([2]; 7 days) | Increase (+) or decrease (−) of cumulative water intake [2] | Increase (+) or decrease (−) of cumulative food intake [2] | Serum glucose level ([4]; Day 2) | Serum glucose level ([4]; Day 4) | Serum glucose level ([4]; Day 6) | other results |
| --- | --- | --- | --- | --- | --- | --- | --- | --- | --- | --- | --- | --- | --- | --- | --- | --- |
| S L S K M D Q T L A V Y Q Q V (SLSKMDQTLAVYQQV) [LEP(71–85)] | 35.5 ± 1.1^b gm/mouse | +20.0% | +5.0 g | – | – | – | – | – | – | – | – | – | – | – | – | Food intake vs vehicle [1]: significantly (P=0.01) less than vehicle-injected control mice |
| SCSLPQTSG [LEP-(116–124)] | – | – | – | 34.6 ± 0.9 g/mouse | 22.6% | – | – | – | – | – | – | – | – | – | – | Food intake relative to OB3 ([2]; 7 days): equivalent to that of mice treated with OB3 |
| S Q N V L Q I A N D L E N L R (SQNVLQIANDLENLR; not fully specified (N-terminus)) [LEP(91–105)] | 36.1 ± 0.7^b gm/mouse | +18.6% | +5.2 g | – | – | – | – | – | – | – | – | – | – | – | – | Food intake vs vehicle [1]: significantly (P=0.01) less than vehicle-injected control mice |
| R I N D I S H T Q S V S A K Q (RINDISHTQSVSAKQ) [LEP(41–55)] | 39.4 ± 1.5 gm/mouse | +27.6% | +5.9 g | – | – | – | – | – | – | – | – | – | – | – | – | Body weight gain and food intake vs vehicle [3]: not significantly (i.e., P>0.05) different |
| S[dC]SLPQT [[D-Cys-2]-OB3] | – | – | – | – | – | 62.7 ± 1.7 ml/mouse | 47.6 ± 0.8 g/mouse | +12.8% | +4.8 ± 0.11 g | reduced food intake when compared to vehicle-injected control mice, but not to the level seen in mice receiving OB3 | −2.3% | −5.6% | 298.0 ± 27.9 mg/dL | 403.0 ± 41.1 mg/dL | 346.2 ± 31.7 mg/dL | – |
| Ser-Cys-Ser-Leu-Pro-Gln-[D-Thr] (SCSLPQ[dT]; not fully specified; printed as Ser-Cys-Ser-Leu-Pro-Gln-[D-Thr]) [[D-Thr-7]-OB3] | – | – | – | – | – | 68.3 ± 2.7 ml/mouse | 56.1 ± 0.6 g/mouse | +10.6% | +4.6 ± 0.34 g | slight increase in food consumption | +6.4% | +11.3% | 384.2 ± 18.1 mg/dL | 405.5 ± 16.0 mg/dL | 375.7 ± 17.8 mg/dL | – |
| [D-Ser]-Cys-Ser-Leu-Pro-Gln-Thr ([dS]CSLPQT) [[D-Ser-1]-OB3] | – | – | – | – | – | 58.0 ± 1.8 ml/mouse | 44.4 ± 1.4 g/mouse | +4.6% | +3.3 ± 0.18 g | reduced food intake when compared to vehicle-injected control mice, but not to the level seen in mice receiving OB3 | −9.7% | −11.9% | 356.0 ± 21.2 mg/dL | 360.1 ± 25.1 mg/dL | 287.0 ± 24.4 mg/dL | – |
| SCSLPQ [LEP-(116–121)] | – | – | – | 41.6 ± 1.4 g/mouse | 6.8% | – | – | – | – | – | – | – | – | – | – | Food intake less than vehicle-injected control mice ([2]; 7 days): 6.8% |
| SCSLPQTS [LEP-(116–123)] | – | – | – | 34.3 ± 10 g/mouse | 23.3% | – | – | – | – | – | – | – | – | – | – | Food intake relative to OB3 ([2]; 7 days): equivalent to that of mice treated with OB3 |
